{"source": "paper PMC12220852", "about": "“An adamantane‐based ligand as a novel chemical tool for thermosensory TRPM8 channel therapeutic modulation” (The Febs Journal, 2025)", "key": {"[1]": {"molecular_target": "T1, recombinant human TRPM8 stably expressed in HEK293 cells (hTRPM8) (Homo sapiens, UniProt Q7Z2W7)", "T1 construct": "expressed in transfected cells", "T1 sequence (Q7Z2W7 whole entry)": "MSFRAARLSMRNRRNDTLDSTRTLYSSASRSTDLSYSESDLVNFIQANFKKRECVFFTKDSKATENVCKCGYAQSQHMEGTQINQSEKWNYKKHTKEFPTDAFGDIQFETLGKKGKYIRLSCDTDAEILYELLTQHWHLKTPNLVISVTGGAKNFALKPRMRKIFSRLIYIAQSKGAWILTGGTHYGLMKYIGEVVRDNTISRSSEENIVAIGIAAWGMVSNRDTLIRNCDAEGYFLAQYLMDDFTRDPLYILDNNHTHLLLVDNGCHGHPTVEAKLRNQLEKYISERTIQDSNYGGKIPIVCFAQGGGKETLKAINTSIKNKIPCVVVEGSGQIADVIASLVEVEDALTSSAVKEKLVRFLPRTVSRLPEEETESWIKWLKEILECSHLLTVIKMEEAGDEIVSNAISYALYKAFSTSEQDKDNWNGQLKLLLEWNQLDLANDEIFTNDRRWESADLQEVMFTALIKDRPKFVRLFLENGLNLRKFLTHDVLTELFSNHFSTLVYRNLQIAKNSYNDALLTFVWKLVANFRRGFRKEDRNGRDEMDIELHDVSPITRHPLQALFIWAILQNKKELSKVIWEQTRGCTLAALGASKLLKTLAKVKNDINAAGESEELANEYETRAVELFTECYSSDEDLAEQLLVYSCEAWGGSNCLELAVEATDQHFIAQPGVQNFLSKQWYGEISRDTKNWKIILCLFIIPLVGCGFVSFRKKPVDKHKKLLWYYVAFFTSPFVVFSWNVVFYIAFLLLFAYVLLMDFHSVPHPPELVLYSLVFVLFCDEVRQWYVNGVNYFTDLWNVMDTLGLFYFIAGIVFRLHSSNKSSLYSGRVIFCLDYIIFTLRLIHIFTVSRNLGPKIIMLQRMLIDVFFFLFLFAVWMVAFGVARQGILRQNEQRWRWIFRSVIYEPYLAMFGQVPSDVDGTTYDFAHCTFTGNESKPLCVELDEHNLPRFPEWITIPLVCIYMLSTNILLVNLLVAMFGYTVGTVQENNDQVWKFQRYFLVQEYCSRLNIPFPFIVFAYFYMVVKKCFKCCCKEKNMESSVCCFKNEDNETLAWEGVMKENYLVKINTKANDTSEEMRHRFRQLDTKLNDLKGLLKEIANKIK", "assay": "Ca2+ microfluorimetry screen for agonist/antagonist activity in hTRPM8-HEK293 cells", "type": "cell-based", "from_the_text": "We first evaluated the series of compounds 20–29 synthesized using the Passerini‐Adamantane reaction. All compounds were screened for channel agonism and antagonism on recombinant human TRPM8 stably expressed in HEK293 cells (hTRPM8‐HEK293) with Ca^2+ microfluorimetry. […] Compound‐induced TRPM8‐mediated Ca^2+ influx was confirmed using untransfected HEK293 cells and the channel blocker AMTB. […] The concentration of compounds to reach half of channel activation (EC50) or to block half‐channel activity evoked by WS‐12 (IC50) are reported in Table 1, along with the percentage of maximal activation or blockade (Efficacy).\nAssays were conducted to assess the channel activity of the recombinant hTRPM8 stably expressed in HEK‐293 cells. HEK‐293‐hTRPM8 cells were cultured in a monolayer using a DMEM GlutaMax with 10% FBS and 1% P/S and maintained at 37 °C in 5% CO2. For experiments, cells were prepared and seeded at the indicated densities. To evaluate compound effectiveness against hTRPM8 activity, microfluorometry‐based calcium flux assays were performed using Fluo‐4 NW Ca^2+ dye and fluorescence detection. HEK cell lines expressing hTRPM8 were seeded in 96‐well plates and incubated with the dye‐loading solution. Ion channel activity was measured using a plate reader, and fluorescence intensity changes were recorded following the addition of vehicle, compound at varying concentrations, and antagonist (10 μM AMTB). Data analysis included calculating the Z‐factor for each assay and normalizing compound effects to […]. Data were analyzed to determine the concentration exerting half‐maximal inhibition (IC50) or activation (EC50) of agonist‐induced calcium elevation, using GRAPHPAD PRISM8® software (Boston, MA, USA). All experiments were conducted in triplicate, and results are presented as mean ± standard deviation."}, "[2]": {"assay": "Metabolic stability in mouse plasma", "type": "in vitro ADME", "details": "after 1 h at 37 °C, 100 μM substrate", "method": "Because of the lack of systemic activity of compound 23, we evaluated the in vitro plasmatic and hepatic metabolic stability. To this aim, compound 23 was exposed to mouse plasma and mouse liver microsome (MLM) fractions, and the residual substrate was measured after 1 h. Under these conditions, the residual substrate was about 97% and 90% in plasma and microsomes, respectively, denoting that this molecule suffers from mild hydrolysis of the ester group.\nThe standard incubation mixture (100 μL final volume) was carried out by dissolving the tested substrate (100 μM) in DMSO (5% final volume) in preincubated plasma at 37 °C. The mixture was shaken for 60 min at 37 °C. Control incubations were carried out without substrate. Each incubation was stopped by addition of 200 μL of ice‐cold acetonitrile, vortexed, and centrifuged at 13 000 r.p.m. for 10 min. The supernatants were analyzed by LC‐UV [68].\nThe metabolic stability of the compound 23 was determined in vitro by measuring the residual peak area after incubation by LC‐UV analysis. Samples were further processed by LC‐HRMS equipment for metabolite profiling. Raw data files were processed using both XCALIBUR® and COMPOUND DISCOVERER 3.2® software (Thermo Scientific) using a customized workflow for the detection and identification of the expected and unknown metabolites (Fig. S80)."}}}
{"smiles": "O=C(COC(=O)c1ccccc1-c1ccccc1)NC12CC3CC(CC(C3)C1)C2", "note": "[Compound 23, 2‐((3S,5S,7S)‐adamantan‐1‐ylamino)‐2‐oxoethyl [1,1′‐biphenyl]‐2‐carboxylate]", "values": [{"measurement": "Activity (agonist/antagonist)", "setting": "[1]; hTRPM8-HEK293, agonism = compound-induced Ca2+ influx, antagonism = modulation of WS-12-induced Ca2+ influx", "value": "Antagonist"}, {"measurement": "IC50", "setting": "[1]; hTRPM8-HEK293, block of half channel activity evoked by WS-12, mean ± SD, N = 3, read-out: IC50", "value": 0.2, "unit": "µM"}, {"measurement": "Hill coefficient", "setting": "[1]; hTRPM8-HEK293 Ca2+ microfluorimetry dose-response, mean ± SD", "value": "0.5 ± 0.9"}, {"measurement": "residual substrate in mouse plasma", "setting": "[2]", "value": "about 97%"}]}
